Results taken from patent publication US7256172B1, “Method of treatment and agents useful for same” (The University of Melbourne, priority 1998, dated 2007).
Blank lines part the entries; values can stand above or below the compound they belong to. No end group written: not given here.

Legend:
[1] = molecular target: guinea-pig protease activated receptor 2 (PAR2), in guinea-pig bronchus tissue (guinea-pig); assay: cell-based or functional assay
[2] = molecular target: T1, rat protease activated receptor 2 (PAR2), in rat airway tissue (rat) (UniProt Q63645); assay: cell-based or functional assay
T1 sequence (looked up): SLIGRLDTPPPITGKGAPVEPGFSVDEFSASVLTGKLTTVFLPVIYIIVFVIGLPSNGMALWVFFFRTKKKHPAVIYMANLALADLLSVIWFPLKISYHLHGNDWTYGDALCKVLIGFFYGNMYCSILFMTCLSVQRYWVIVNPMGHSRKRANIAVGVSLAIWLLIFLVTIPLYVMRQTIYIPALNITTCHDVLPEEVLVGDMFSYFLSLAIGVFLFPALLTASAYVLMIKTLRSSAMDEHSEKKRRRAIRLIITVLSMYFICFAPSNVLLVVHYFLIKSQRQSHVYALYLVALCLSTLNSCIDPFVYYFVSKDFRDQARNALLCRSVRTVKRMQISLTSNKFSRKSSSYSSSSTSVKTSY

[3] = molecular target: T2, mouse protease activated receptor 2 (PAR2), in mouse bronchus and trachea tissue (mouse) (UniProt P55086); assay: cell-based or functional assay
T2 sequence (looked up): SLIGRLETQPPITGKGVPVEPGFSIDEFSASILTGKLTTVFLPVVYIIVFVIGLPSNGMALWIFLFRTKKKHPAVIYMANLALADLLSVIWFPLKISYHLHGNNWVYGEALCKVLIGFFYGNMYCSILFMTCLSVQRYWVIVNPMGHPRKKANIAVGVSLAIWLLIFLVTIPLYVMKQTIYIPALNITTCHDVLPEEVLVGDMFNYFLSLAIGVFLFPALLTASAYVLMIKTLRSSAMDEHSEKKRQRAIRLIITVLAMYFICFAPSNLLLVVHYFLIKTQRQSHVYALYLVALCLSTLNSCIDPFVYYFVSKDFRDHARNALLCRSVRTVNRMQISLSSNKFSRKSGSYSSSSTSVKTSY

[4] = test system: human coronary artery rings; conditions: for relaxation after removal of the endothelium: endothelium-denuded; for maximum (Rmax % contraction reversal): endothelium-intact, control
[5] = test system: mouse bronchial rings; conditions: for response of epithelium-intact bronchi: contracted to approximately 40% Fmax with carbachol; for response in presence of cyclooxygenase inhibitors: indomethacin (3 μM) or aspirin (100 μM)
Source text: (§1) The right and left main bronchi and their first order branches of specific pathogenfree (SPF) Balb/c mice (15–20 g; either sex), Hartley tricolour guinea-pigs (300–400 g; male) and Sprague-Dawley rats (200–350 g; either sex), all killed by either cervical dislocation or overdosed (i.p.) with sodium pentobarbitone, were cleared of surrounding connective tissue, nerves and blood vessels under a dissecting microscope and placed in cold, carbogenated (95% v/v O2,5% v/v CO2) Krebs solution (Kemp and Cocks, 1997). Human airway preparations (0.5–1 mm in external diameter) were dissected from lungs of cancer patients undergoing thoracotomy at The Royal Melbourne Hospital, Melbourne, Australia. The epithelium was removed from some bronchi either by mechanical abrasion of the luminal surface (guinea-pig) or by brief, gentle intraliminal flushing of the airways with Krebs containing 0.1% v/v Triton-X100 (mouse and rat). In each case, removal of the epithelium was verified histologically in 8 μm formalin-fixed, paraffin sections stained with haemotoxylin and eosin. Ring segments (approximately 2 mm long) of bronchi and bronchioles were mounted in Krebs (37° C.) on stainless steel wires (40 μm) in dual channel (5 ml) Mulvany-Halpern myographs (JP Trading, Aarhus, Denmark) to record changes in isometric force (Kemp and Cocks, 1997). After equilibration at a passive force between 0.2 g and 0.3 g, tissues were contracted to their maximum levels of active force (Fm.),) with acetylcholine (30 μM), thoroughly washed with Krebs and allowed to return to baseline. Various drugs or their vehicles were then added and 30 min later all tissues were contracted to approximately 40% Fmax with titrated concentrations of carbachol (10–500 nM). The L-type voltage-operated Ca^2+ channel inhibitor, nifedipine (0.3 μM) was added to all mouse and rat tissues after obtaining Fmax to control characteristic phasic contractile activity with carbachol.
If no response occurred the tissues were then exposed to cumulative concentrations of either SLIGRL—NH2 (SEQ ID NO:2) or SFLLRN—NH2 (SEQ ID NO:1) (0.1–30 μM).
(§2) Results are presented as mean±s.e mean and pEC50 (sensitivity) values were calculated by fitting concentration-response curves to a four parameter logistic function (Kemp and Cocks, 1997) using Graphpad Prism (version 2.0). Statistical comparison of mean pEC50 and maximum response (Rmax) values were compared by two-tailed unpaired Student's t-tests or one way analysis of variance (ANOVA) with Tukey-Kramer's t-tests for multiple comparisons. P<0.05 was accepted as significant. Unless specified, all averaged data are from n>5 experiments.
Mouse bronchus preparations were carefully mounted horizontally on fine (40 μm) stainless steel wires attached to the jaws of a Mulvany-Halpem myograph. After 60 min at 37° C., all rings were stretched to 0.5 g passive force, which had been determined in preliminary experiments to be optimal, and allowed to recover from that stretch for a further 30 min. Maximum contraction (Fmax) in each tissue was then determined with exogenously applied acetylcholine (ACh; 30 μM) followed by washout. A further 30 min equilibration time was allowed before the tissues were actively contracted to between 20% and 60% of their individual Fm.” values with titrated concentrations of carbachol (10–100 nM). […] In some cases, tissues were treated with a range of drugs prior to contraction to approximately […] Fmax. These included the cyclooxygenase inhibitors indomethacin and aspirin, the nitric oxide (NO) synthase inhibitor N′-nitro-L-(L-NOARG), the NO scavenger oxyhaemoglobin (Hb0), and the L-voltage-operated Cat' channel inhibitor nifedipine.
After an initial passive stretch to 0.5 g (Ti) and recovery, each ring was contracted with acetylcholine (Ach; 30 μM). The contraction was taken as the tissue maximum and referred to as Fmax.

[6] = test system: monkey small bronchi
Source text: The experimental details are similar to those for the mouse isolated bronchi. Briefly, approximately 2 mm long rings of small bronchi were mounted on wire hooks. In each trace, half log concentrations are not depicted for clarity.

[7] = test system: isolated human bronchioles
Protocol: Small (500 μm) bronchioles were carefully dissected from discarded sections of human left lung which had been excised at surgery from two male lung cancer patients (Royal Melbourne Hospital, Melbourne, Australia).
Dissection of these bronchioles required a fine-dissecting microscope and an assistant to continually flood the preparation with cold oxygenated Krebs solution to remove air bubbles and keep the tissue viable. Bronchioles approximately 2 mm in length were then mounted on […] diameter stainless wires in a Krebs solution-filled myograph chamber, as described for the mouse bronchus preparation above.

[8] = molecular target: PAR1 (Homo sapiens, UniProt P25116); conditions: concentrations up to 1 mM, human platelets; cited from earlier work
Sequence of PAR1 (P25116 22-425): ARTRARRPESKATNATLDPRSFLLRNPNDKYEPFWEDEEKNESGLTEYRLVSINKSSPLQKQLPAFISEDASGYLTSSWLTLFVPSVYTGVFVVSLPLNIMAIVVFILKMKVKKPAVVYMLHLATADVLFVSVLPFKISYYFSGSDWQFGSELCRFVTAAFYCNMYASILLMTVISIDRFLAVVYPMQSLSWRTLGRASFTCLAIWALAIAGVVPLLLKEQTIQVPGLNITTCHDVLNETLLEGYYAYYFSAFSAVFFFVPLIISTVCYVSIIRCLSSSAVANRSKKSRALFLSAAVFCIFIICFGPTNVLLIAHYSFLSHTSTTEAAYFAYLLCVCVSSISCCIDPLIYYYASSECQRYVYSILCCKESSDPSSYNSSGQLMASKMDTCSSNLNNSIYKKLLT

[9] = test system: mouse trachea; conditions: for increase in Isc in presence of indomethacin: cyclooxygenase inhibitor indomethacin; for change in Isc: luminally applied
Source text: Mice were killed by a lethal overdose of sodium pentobarbitone and the tracheae rapidly excised. The trachea was opened longitudinally through the ventral cartilage rings to make a fiat sheet. Each sheet of trachea was mounted between two perspex chambers so that the mucosal (luminal) and submucosal and bathed with warmed, oxygenated Krebs' solution, independently on each side. Electrodes in the chambers allowed recordings of transepithelial potential difference using an amplifier. The tissue was voltage clamped at 0 mV by passing a current from the amplifier via another set of electrodes in the chambers. The amount of current required to maintain voltage at 0 mV is defined as the short circuit current (Isc) and is conventionally used as a measure of all ionic fluxes across the preparation.
(§3) After an equilibration time of 30 min, compounds for testing and drugs to elucidate the mechanism of any changes in Isc to the test compounds were added to either side of the tracheal epithelium (ie to either bath). Compounds used for increasing Isc were PGE2, adenosine 5′-triphosphate (ATP), uridine 5′-triphosphate (UTP) and the PAR1-, PAR2- and PAR4-activating peptides, SFLLRN (SEQ ID NO:1) and SLIGRL (SEQ ID NO:2) and GYPGQY (SEQ ID NO:6), respectively. These stimulants were added cumulatively with controls for any time-dependent tachyphylaxis.

[10] = test system: guinea-pig taenia coli; conditions: apamin (100 μM)
Protocol: 2 cm strips of teania coil with intact Auerbach's plexus, but which had been stripped of the mucosa, were suspended in Kreb's solution under 1 g passive tension, and contracted with histamine (1 μM) to induce active tension.

[11] = molecular target: PAR1-like receptor ("atypical" thrombin receptor) of human coronary artery endothelial cells (human); assay: cell-based or functional assay
[12] = molecular target: mouse protease activated receptor 1 (PAR1), in mouse bronchus and trachea tissue (mouse) (UniProt P30558); assay: cell-based or functional assay
Sequence of mouse protease activated receptor 1 (PAR1), in mouse bronchus and trachea tissue (mouse) (P30558 42-430): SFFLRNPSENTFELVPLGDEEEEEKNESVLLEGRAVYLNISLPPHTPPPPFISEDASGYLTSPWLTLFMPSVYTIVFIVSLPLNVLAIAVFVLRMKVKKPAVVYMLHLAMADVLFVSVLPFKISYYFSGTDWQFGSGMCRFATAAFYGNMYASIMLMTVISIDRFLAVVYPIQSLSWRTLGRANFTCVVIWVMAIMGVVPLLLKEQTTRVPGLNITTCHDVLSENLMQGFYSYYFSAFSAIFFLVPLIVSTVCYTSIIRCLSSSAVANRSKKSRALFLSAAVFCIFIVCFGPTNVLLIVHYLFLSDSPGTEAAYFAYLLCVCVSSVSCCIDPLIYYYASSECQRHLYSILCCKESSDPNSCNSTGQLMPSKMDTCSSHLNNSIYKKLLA

[13] = test system: human bronchial epithelium; conditions: after amiloride
Protocol: Human airways were obtained from discarded sections of lungs of patients undergoing lobectomy operations at the Royal Melbourne Hospital, Melbourne, Australia usually for lung cancer. The dissection and set up were as described above for the mouse trachea.
as §3

[14] = test system: human distal colon
Protocol: Human distal colon strips obtained at bowel resection were suspended at 1 g passive isometric force and contracted with substance P (30 μM) to maintain a steady level of active tension.

[15] = test system: rat isolated bronchi
Source text: as §1
as §2, with “All cumulative responses (relaxations and contractions) were normalised as percentages of the initial level of active force to carbachol. Results” for “Results”

pEC50, epithelium-dependent relaxation of guinea-pig isolated bronchi [1]: 5.4 -log M
pEC50, epithelium-dependent relaxation of rat isolated bronchi [2]: 5.5 -log M
pEC50, relaxation of rat bronchioles [2]: 5.1 -log M
pEC50 (sensitivity), relaxation of carbachol-contracted mouse bronchial rings [3]: 5.6 -log M
pEC50, relaxation of first generation branches of the mouse main bronchi [3]: 5.1 -log M
Compound: SLIGRL-NH2 (mouse PAR2 tethered ligand sequence, PAR2 activating peptide)

Compound: trypsin
relaxation after removal of the endothelium [4]: abolished
maximum (Rmax % contraction reversal) [4]: 88.1±2.9%
response of epithelium-intact bronchi [5]: activity-dependent relaxation
response in presence of cyclooxygenase inhibitors [5]: blocked by indomethacin
effect on monkey small bronchi [6]: smooth muscle relaxing effects
response of human bronchioles [7]: activity dependent relaxation that was reversed by indomethacin

Compound: SLIGKVD-NH2
activation of PAR1 [8]: does not activate PAR1

Compound: Nc1ncnc2c1ncn2[C@@H]1O[C@H](COP(=O)(O)OP(=O)(O)OP(=O)(O)O)[C@@H](O)[C@H]1O [ATP, adenosine 5′-triphosphate]
increase in Isc in presence of indomethacin [9]: unaffected
change in Isc [9]: rapid initial rise in Isc usually followed by some degree of recovery until a steady plateau was reached
relaxation in presence of apamin [10]: no relaxation

pEC50, relaxation of human coronary artery, untreated tissue [11]: 7 -log M
pEC50, relaxation of precontracted human coronary artery segments [11]: 6.9 -log M
pEC50, relaxation of carbachol-contracted mouse bronchial rings [12]: 5.6 -log M
pEC50, relaxation of first generation branches of the mouse main bronchi [12]: 5.5 -log M
Compound: SFLLRN-NH2 (human PAR1 tethered ligand sequence, thrombin receptor-activating peptide)
pEC50, relaxation of human coronary artery after desensitisation to thrombin and trypsin [11]: 6.4 -log M

pEC50 (sensitivity), endothelium-dependent relaxation of U46619-contracted human coronary artery rings [11]: 1.7 log U/ml
Compound: trypsin (bovine pancreas, Worthington Biochem) (from UniProt P00760 24-246) (enzyme)

Compound: SLIGKV-NH2
maximum (Rmax % contraction reversal) [4]: 39.9±11.0%
effect on monkey small bronchi [6]: smooth muscle relaxing effects
change in Isc [13]: relatively poor response

pEC50 (sensitivity), endothelium-dependent relaxation of U46619-contracted human coronary artery rings [11]: 2.5 log U/ml
Compound: alpha-thrombin (bovine serum, Sigma) (from UniProt P00735 318-625) (enzyme)

Compound: thrombin
response of human distal colon [14]: did not result in relaxation
relaxation after removal of the endothelium [4]: abolished
maximum (Rmax % contraction reversal) [4]: 88.9±4.9%
response of epithelium-intact bronchi [5]: only poor indomethacin sensitive relaxation at high concentrations
response in presence of cyclooxygenase inhibitors [5]: converted to contractions by indomethacin
response of rat bronchial rings [15]: small relaxation
effect on monkey small bronchi [6]: smooth muscle relaxing effects
response of human bronchioles [7]: activity dependent relaxation that was reversed by indomethacin

Compound: prostaglandin E2 [PGE2, reference compound]
increase in Isc in presence of indomethacin [9]: unaffected
change in Isc [9]: rapid initial rise in Isc usually followed by some degree of recovery until a steady plateau was reached
response of epithelium-intact bronchi [5]: potent and maximum relaxation
relaxation after removal of the epithelium ([5]; epithelium removed with 0.1% v/v Triton X-100): could still sensitively relax
maximum relaxation (Rmax) ([5]; main bronchi with epithelium, % of initial force to carbachol): 100%
sensitivity (pEC50) ([5]; main bronchi with epithelium, contracted with carbachol): 8.2±0.1 −log M
